Measurements from article PMC8533206 (Antioxidants, 2021).

What was measured:
[1] = target: T1, Human recombinant MAO-B (hMAO-B) (Homo sapiens, UniProt P27338); experiment: MAO-B inhibition assay (Amplex Red fluorescence, benzylamine substrate); type: biochemical; conditions: single dose 10 µM
T1 construct: purchased Sigma-Aldrich; host or cells: insect cells
T1 sequence (P27338 1-520): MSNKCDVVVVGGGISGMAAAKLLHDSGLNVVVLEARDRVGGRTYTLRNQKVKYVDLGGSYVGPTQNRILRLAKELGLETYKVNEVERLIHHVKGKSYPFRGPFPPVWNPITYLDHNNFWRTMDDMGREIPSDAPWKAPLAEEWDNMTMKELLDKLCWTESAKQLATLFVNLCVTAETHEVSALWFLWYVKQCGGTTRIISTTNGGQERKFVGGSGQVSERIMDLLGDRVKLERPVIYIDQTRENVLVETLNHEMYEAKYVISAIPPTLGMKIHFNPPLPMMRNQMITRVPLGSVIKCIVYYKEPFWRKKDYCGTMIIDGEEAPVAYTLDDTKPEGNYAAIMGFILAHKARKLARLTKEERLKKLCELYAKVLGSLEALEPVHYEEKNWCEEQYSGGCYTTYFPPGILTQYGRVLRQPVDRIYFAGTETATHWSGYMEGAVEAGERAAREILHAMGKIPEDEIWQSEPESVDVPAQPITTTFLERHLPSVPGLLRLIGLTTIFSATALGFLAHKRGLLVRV
Method: The biological evaluation of the tested compounds over both MAO-A and MAO-B was performed following the previously reported method. The MAO activity was measured in relative fluorescence units (RFU) evoked by peroxidase-catalyzed oxidation of Amplex Red® to resorufin, in which H2O2 generated by MAO reaction was used as the electron donor. Human recombinant MAO-A (hMAO-A) and MAO-B (hMAO-B) enzymes expressed in insect cells were obtained from Sigma-Aldrich. The 2 μL of test compound in DMSO (final concentration: 1–10 μM) was treated with 98 μL of hMAO enzyme solution in 50 mM sodium phosphate buffer (pH 7.4, final protein amounts: ~1.25 μg protein/well for MAO-A and ~2.5 μg protein/well for MAO-B) on 96-well black plate and incubated for 15 min at 37 °C. Then, 100 μL of reaction working solution which is a mixed solution of 400 μM Amplex Red® (Cayman, final concentration: 200 μM), 2 U/mL horseradish peroxidase (Sigma-Aldrich, final concentration: 1 U/mL) and 2 mM substrate (p-tyramine for MAO-A, benzylamine for MAO-B, Sigma-Aldrich, final concentration: 1 mM) in 50 mM sodium phosphate buffer (pH 7.4) were added and incubated for 20 min at 37 °C in the dark. The fluorescent intensity was quantified using a microplate reader (SpectraMax®i3, Molecular Device) with an excitation at 545 nm and an emission at 590 nm. The 50% inhibitory concentrations (IC50) of compounds were determined as the mean ± S.E.M. in triplicate from the dose-response inhibition curves using SigmaPlot® 13.0 (Systat Software Inc., San Jose, CA, USA).

Compound | melting point [°C] | inhibition at 10 µM [1] [%]
O=C(Nc1ccc(F)cc1)Nc1ccc2c(ccn2C(=O)c2cccc(F)c2)c1 [Compound 4i, 1-(1-(3-Fluorobenzoyl)-1H-indol-5-yl)-3-(4-fluorophenyl)urea] | 264.3 to 265.3 | 37 ± 0.9
COc1ccc(NC(=O)Nc2ccc3c(ccn3C(=O)c3cccc(F)c3)c2)cc1 [Compound 4f, 1-(1-(3-Fluorobenzoyl)-1H-indol-5-yl)-3-(4-methoxyphenyl)urea] | – | 32.5 ± 1.4
O=C(NCCc1ccc(F)cc1)Nc1ccc2c(ccn2C(=O)c2cccc(F)c2)c1 [Compound 4l, 1-(1-(3-Fluorobenzoyl)-1H-indol-5-yl)-3-(4-fluorophenethyl)urea] | 231.5 to 232.5 | 42 ± 0.6
O=C(Nc1cc(Cl)cc(Cl)c1)Nc1ccc2c(ccn2C(=O)c2cccc(F)c2)c1 [Compound 4h, 1-(3,5-Dichlorophenyl)-3-(1-(3-fluorobenzoyl)-1H-indol-5-yl)urea] | – | 38.6 ± 1.6
O=C(Nc1ccc(Cl)c(Cl)c1)Nc1ccc2c(ccn2C(=O)c2cccc(F)c2)c1 [Compound 4j, 1-(3,4-Dichlorophenyl)-3-(1-(3-fluorobenzoyl)-1H-indol-5-yl)urea] | – | 53.5 ± 0.3
COc1cc(NC(=O)Nc2ccc3c(ccn3C(=O)c3cccc(F)c3)c2)cc(OC)c1 [Compound 4g, 1-(3,5-Dimethoxyphenyl)-3-(1-(3-fluorobenzoyl)-1H-indol-5-yl)urea] | 235.6 to 236.6 | 55.7 ± 0.2
O=C(Nc1ccc2c(ccn2C(=O)c2cccc(F)c2)c1)NC1CCCCC1 [Compound 4d, 1-Cyclohexyl-3-(1-(3-fluorobenzoyl)-1H-indol-5-yl)urea] | 222.7 to 223.7 | 44 ± 0.8
O=C(Nc1ccc(N2CCOCC2)cc1)Nc1ccc2c(ccn2C(=O)c2cccc(F)c2)c1 [Compound 4n, 1-(1-(3-Fluorobenzoyl)-1H-indol-5-yl)-3-(4-morpholinophenyl)urea] | – | 32.9 ± 0.3
O=C(Nc1ccc(Oc2ccccc2)cc1)Nc1ccc2c(ccn2C(=O)c2cccc(F)c2)c1 [Compound 4m, 1-(1-(3-Fluorobenzoyl)-1H-indol-5-yl)-3-(4-phenoxyphenyl)urea] | 235.2 to 236.2 | 38.1 ± 0.5
O=C(NCCCl)Nc1ccc2c(ccn2C(=O)c2cccc(F)c2)c1 [Compound 4c, 1-(2-Chloroethyl)-3-(1-(3-fluorobenzoyl)-1H-indol-5-yl)urea] | 191.3 to 192.3 | 26.6 ± 0.6
O=C(Nc1ccc([N+](=O)[O-])cc1)Nc1ccc2c(ccn2C(=O)c2cccc(F)c2)c1 [Compound 4e, 1-(1-(3-Fluorobenzoyl)-1H-indol-5-yl)-3-(4-nitrophenyl)urea] | 249.1 to 250.1 | 47.9 ± 1.6
CCOC(=O)CNC(=O)Nc1ccc2c(ccn2C(=O)c2cccc(F)c2)c1 [Compound 4b, Ethyl ((1-(3-fluorobenzoyl)-1H-indol-5-yl)carbamoyl)glycinate] | 203.3 to 204.3 | 9.9 ± 1.5
CCNC(=O)Nc1ccc2c(ccn2C(=O)c2cccc(F)c2)c1 [Compound 4a, 1-Ethyl-3-(1-(3-fluorobenzoyl)-1H-indol-5-yl)urea] | – | 46.2 ± 1.1
O=C(Nc1ccc(Cl)c(C(F)(F)F)c1)Nc1ccc2c(ccn2C(=O)c2cccc(F)c2)c1 [Compound 4k, 1-(4-Chloro-3-(trifluoromethyl)phenyl)-3-(1-(3-fluorobenzoyl)-1H-indol-5-yl)urea] | 210.9 to 211.9 | 42.1 ± 1.7

Other lines, results leading:

melting point [°C] | inhibition at 10 µM [1] [%] | Compound
199.4 to 200.4 | 15.5 ± 1.1 | CCOC(=O)NC(=S)Nc1ccc2c(ccn2C(=O)c2cccc(F)c2)c1 [Compound 5a, 1-Ethoxycarbonyl-3-(1-(3-fluorobenzoyl)-1H-indol-5-yl)thiourea]
144.9 to 145.9 | 51.1 ± 0.4 | O=C(c1cccc(F)c1)n1ccc2cc(NC(=S)Nc3cccnc3)ccc21 [Compound 5j, 1-(1-(3-Fluorobenzoyl)-1H-indol-5-yl)-3-(pyridin-3-yl)thiourea]
– | 34.2 ± 0.2 | O=C(Nc1ccc(F)c(Cl)c1)c1ccc2[nH]ccc2c1 [Compound 8c, N-(3-chloro-4-fluorophenyl)-1H-indole-5-carboxamide]
136.5 to 137.5 | 33.8 ± 2.3 | CCOC(=O)Nc1ccc2c(ccn2C(=O)c2cccc(F)c2)c1 [Compound 6b, Ethyl (1-(3-fluorobenzoyl)-1H-indol-5-yl)carbamate]
171.1 to 172.1 | 32.5 ± 0.5 | COc1cc(NC(=S)Nc2ccc3c(ccn3C(=O)c3cccc(F)c3)c2)cc(OC)c1 [Compound 5h, 1-(3,5-Dimethoxyphenyl)-3-(1-(3-fluorobenzoyl)-1H-indol-5-yl)thiourea]
103.4 to 104.4 | 49.8 ± 0.3 | COC(=O)c1ccc2c(ccn2C(=O)c2cccc(F)c2)c1 [Compound 7a, Methyl 1-(3-fluorobenzoyl)-1H-indole-5-carboxylate]
– | 35.5 ± 1.5 | CCOC(=O)C(=O)Nc1ccc2c(ccn2C(=O)c2cccc(F)c2)c1 [Compound 6c, Ethyl 2-((1-(3-fluorobenzoyl)-1H-indol-5-yl)amino)-2-oxoacetate]
187.1 to 188.1 | 44.7 ± 0.5 | O=C(c1cccc(F)c1)n1ccc2cc(NC(=S)NCCN3CCCCC3)ccc21 [Compound 5e, 1-(1-(3-Fluorobenzoyl)-1H-indol-5-yl)-3-(2-(piperidin-1-yl)ethyl)thiourea]
278.1 to 279.1 | 26.8 ± 1.3 | O=C(Nc1ccc2c(ccn2C(=O)c2cccc(F)c2)c1)c1ccnc([N+](=O)[O-])c1 [Compound 6a, N-(1-(3-Fluorobenzoyl)-1H-indol-5-yl)-2-nitroisonicotinamide]
226.6 to 227.6 | 59.6 ± 0.3 | O=C(Nc1ccc2c(ccn2C(=O)c2cccc(F)c2)c1)c1coc2ccccc2c1=O [Compound 6e, N-(1-(3-fluorobenzoyl)-1H-indol-5-yl)-4-oxo-4H-chromene-3-carboxamide]
131.6 to 132.6 | 15.3 ± 0.8 | O=C(NCc1ccc2c(c1)OCO2)c1ccc2[nH]ccc2c1 [Compound 8d, N-(benzo[d][1,3]dioxol-5-ylmethyl)-1H-indole-5-carboxamide]
237.6 to 238.6 | 53 ± 0.3 | O=C(Nc1ccc2c(ccn2C(=O)c2cccc(F)c2)c1)c1ccc(Cl)c(Cl)c1 [Compound 6d, 3,4-Dichloro-N-(1-(3-fluorobenzoyl)-1H-indol-5-yl)benzamide]
193.4 to 194.4 | 59.8 ± 0.4 | O=C(c1cccc(F)c1)n1ccc2cc(NC(=S)Nc3ccc(Cl)c(Cl)c3)ccc21 [Compound 5i, 1-(3,4-Dichlorophenyl)-3-(1-(3-fluorobenzoyl)-1H-indol-5-yl)thiourea]
– | 30.6 ± 0.9 | O=C(c1cccc(F)c1)n1ccc2cc(NC(=S)Nc3ccc([N+](=O)[O-])cc3)ccc21 [Compound 5g, 1-(1-(3-Fluorobenzoyl)-1H-indol-5-yl)-3-(4-nitrophenyl)thiourea]
– | 46.8 ± 0.2 | O=C(c1cccc(F)c1)n1ccc2cc(NC(=S)NCCN3CCOCC3)ccc21 [Compound 5d, 1-(1-(3-Fluorobenzoyl)-1H-indol-5-yl)-3-(2-morpholinoethyl)thiourea]
